In patent US20040024024A1, “Aromatic sulfone hydroxamates and their use as protease inhibitors” (priority 2001, published 2004):

Tests used:
Assay type in all cases: biochemical
[1] = biological target: T1, Human recombinant MMP-2 (Homo sapiens, UniProt P08253); test: In vitro MMP inhibition, IC50 determination (fluorogenic substrate I)
T1 construct: made in house; host or cells: MMP-2-transfected p2AHT2 cells
T1 sequence (P08253 110-660): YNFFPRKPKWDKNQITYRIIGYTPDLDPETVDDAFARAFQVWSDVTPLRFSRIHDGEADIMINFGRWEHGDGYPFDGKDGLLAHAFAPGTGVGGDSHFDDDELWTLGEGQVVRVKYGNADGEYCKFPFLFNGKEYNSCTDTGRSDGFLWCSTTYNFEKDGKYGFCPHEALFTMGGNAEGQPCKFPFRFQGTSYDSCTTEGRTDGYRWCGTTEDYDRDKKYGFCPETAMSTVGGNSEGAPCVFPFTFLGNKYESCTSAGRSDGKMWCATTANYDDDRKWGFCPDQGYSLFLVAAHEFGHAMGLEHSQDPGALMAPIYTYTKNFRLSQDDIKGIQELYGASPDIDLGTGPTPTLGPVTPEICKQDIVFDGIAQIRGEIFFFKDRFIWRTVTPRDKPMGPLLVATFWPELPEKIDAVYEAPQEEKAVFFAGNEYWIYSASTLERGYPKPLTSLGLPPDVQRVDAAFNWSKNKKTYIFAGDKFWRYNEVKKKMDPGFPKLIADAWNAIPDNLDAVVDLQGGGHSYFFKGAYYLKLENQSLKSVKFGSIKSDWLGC
Summary of the method: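 IC50 was derived from the concentration-dependent fall in fluorescence (ex 328, em 415 nm) on Gly-Leu cleavage of 4 μM MCA/Dpa-quenched substrate I. Assays ran at room temperature in pH 7.5 Tris/NaCl/CaCl2/Brij buffer with MMP-2 activated by trypsin or APMA; inhibitors were diluted from 1% DMSO stocks.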

[2] = biological target: T2, Human recombinant MMP-9 (Homo sapiens, UniProt P14780); test: as above
T2 construct: made in house; host or cells: MMP-9-transfected HT1080 cells (spent media)
Summary of the method: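 Reduction in fluorescence (328 nm excitation, 415 nm emission) from cleavage of 4 μM quenched peptide substrate I, measured at room temperature against inhibitor concentration, gave IC50. Enzyme: trypsin- or APMA-activated MMP-9 purified from transfected HT1080 medium; buffer 100 mM Tris, 100 mM NaCl, 10 mM CaCl2, pH 7.5.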

[3] = biological target: T1, Human recombinant MMP-2; test: In vitro MMP inhibition, Ki determination (fluorogenic substrate II)
Description: Several hydroxamates and salts thereof were analyzed in in vitro assays to determine their ability to inhibit the MMP cleavage of peptide substrates. Inhibition (Ki) and IC50 constants were calculated from the assayed hydroxamate-MMP interactions.
Human recombinant MMP-1, MMP-2, MMP-9, MMP-13, and MMP-14 were used in this assay. All enzymes were prepared in Assignee's laboratories following usual laboratory procedures. Protocols for the preparation and use of these enzymes are available in the scientific literature. See, e.g., Enzyme Nomenclature (Academic Press, San Diego, Calif., 1992) (and the citations therein). See also, Frije et al., J. Biol. Chem., 26(24), 16766-73 (1994).
The MMP-2 proenzyme was purified by gelatin Sepharose chromatography from MMP-2-transfected p2AHT2 cells provided by Dr. Gregory Goldberg of Washington University (St. Louis, Mo.).
All MMPs were activated using 4-aminophenylmercuric acetate (“APMA”, Sigma Chemical, St. Louis, Mo.) or trypsin. MMP-9 also was activated using human recombinant MMP-3 (purified in Assignee's laboratory following standard cloning and purification techniques).
Two fluorogenic, methoxycoumarin-containing polypeptide substrates were used in the MMP inhibition assays:
MCA-ArgProLeuGlyLeuDpaAlaArgGluArgNH2 (II)
Here, “Dpa” is 3-(2,4-dinitrophenyl)-L-2,3-diaminopropionyl group, and “MCA” is 7-methoxycoumarin-4-yl acetyl. Substrate (I) was purchased from Baychem (Redwood City, Calif.), and substrate II was prepared Assignee's laboratory. Substrate I was used in the IC50 determination assays, while substrate II was used in the Ki determination assays. In the absence of MMP inhibitory activity, either substrate is cleaved at the Gly-Leu peptide bond. This cleavage separates the highly fluorogenic peptide from the 2,4-dinitrophenyl quencher, thus resulting in increase of fluorescent intensity.
The stock solutions of the assayed hydroxamates (or salts thereof) were prepared in 1% dimethyl sulfoxide (DMSO). These stock solutions were diluted in Buffer A (100 mM Tris-HCl, 100 mM NaCl, 10 mM CaCl2, 0.05% polyoxyethylene 23 lauryl ether, pH 7.5) to obtain solutions with different hydroxamate concentrations, i.e., assay solutions with different concentrations of the assayed MMP inhibitory compound. The experiment controls contained the same amount of Buffer A/DMSO as the assayed sample, but contained no hydroxamate (or salt thereof).
The assays from which the Ki determinations were made were performed as follows. The assayed hydroxamate samples were incubated in separate wells of untreated white polystyrene plates (Nunc Nalgene International, Rochester, N.Y.), and analyzed on a Tecan SpectraFlour Plus plate reader. The excitation wavelength was 330 nm, and the emission wavelength—420 nm. All samples (assayed hydroxamates and controls) were incubated in separate plate wells at room temperature for 1 hr in the presence of 4 μM of MMP substrate (II). In the absence of MMP inhibitory activity, substrate II was cleaved at the Gly-Leu bond resulting in an increase of relative fluorescence. Inhibition was observed as a reduced rate of this increase in relative fluorescence. The various hydroxamates were analyzed using a single low enzyme concentration with a single substrate concentration fixed at or below the Km. This protocol is a modification of method by Knight et al., FEBS Lett., 296(3), 263-266 (1992). Apparent inhibitory constants were determined by non-linear regression of reaction velocity as a function of inhibitor and enzyme concentration using Morrison's equation, as described by Kuzmic, Anal. Biochem. 286, 45-50 (2000). […] Since the substrate concentration was chosen to be at or below the Km, the apparent Ki's from this analysis were reported as Ki's without correction for the influence of substrate.

[4] = substrate (I) 4 μM, room temperature, values not in parenthesis
[5] = substrate (II) 4 μM, 1 hr room temperature, apparent Ki, values in parenthesis

T2 sequence (P14780 107-707 limits assumed): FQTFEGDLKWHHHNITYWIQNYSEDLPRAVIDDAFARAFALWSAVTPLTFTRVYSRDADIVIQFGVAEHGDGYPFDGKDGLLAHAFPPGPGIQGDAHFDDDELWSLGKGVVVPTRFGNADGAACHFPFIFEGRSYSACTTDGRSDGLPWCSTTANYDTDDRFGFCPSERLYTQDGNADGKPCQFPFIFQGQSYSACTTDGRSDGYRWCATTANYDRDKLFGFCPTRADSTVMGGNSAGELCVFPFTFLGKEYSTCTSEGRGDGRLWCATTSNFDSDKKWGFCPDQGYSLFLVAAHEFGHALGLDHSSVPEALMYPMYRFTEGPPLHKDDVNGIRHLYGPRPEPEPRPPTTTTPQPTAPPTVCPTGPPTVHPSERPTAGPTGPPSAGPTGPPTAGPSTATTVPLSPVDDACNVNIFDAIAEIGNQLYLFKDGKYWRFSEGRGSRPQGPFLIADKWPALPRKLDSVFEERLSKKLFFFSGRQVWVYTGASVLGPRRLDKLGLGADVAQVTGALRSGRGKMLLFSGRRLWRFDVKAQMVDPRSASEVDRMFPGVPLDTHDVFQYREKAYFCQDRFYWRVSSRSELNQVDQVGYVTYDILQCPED

SMILES	IC50 ([1]; value outside parentheses) [nM]	IC50 ([2]; value outside parentheses) [nM]	Ki ([3]; value in parentheses) [nM]	IC50 ([1]; value outside parenthesis) [nM]	IC50 ([2]; value outside parenthesis) [nM]	Ki ([3]; value in parenthesis) [nM]	further results
O=C(NCCOc1ccc(S(=O)(=O)C2(C(=O)NO)CCOCC2)cc1)c1cc2ccccc2[nH]1 [Example 599]	< 0.1	11.6	0.38	–	–	–	–
COCCN1CCC(C(=O)NO)(S(=O)(=O)c2ccc(OCCCc3cccc(-c4ccc(F)cc4)c3)cc2)CC1 [Example 140]	–	–	–	48	1690	708	–
CC(C)C(=O)c1cccc(CCCOc2ccc(S(=O)(=O)C3(C(=O)NO)CCOCC3)cc2)c1 [Example 95]	–	–	–	91.4	1200	149	–
O=C(CCCOc1ccc(S(=O)(=O)C2(C(=O)NO)CCOCC2)cc1)Nc1ccc(OC(F)(F)F)cc1 [Example 228]	–	–	–	11.4	180	22.4	–
O=C(NO)C1(S(=O)(=O)c2ccc(OCCCc3ccnc(-c4ccccc4)c3)cc2)CCOCC1 [Example 197]	–	–	–	13.2	432	30.7	–
CN(C(=O)CCCOc1ccc(S(=O)(=O)C2(C(=O)NO)CCOCC2)cc1)c1ccc(OC(F)(F)F)cc1 [Example 249]	–	–	–	226	3630	333	–
O=C(NO)C1(S(=O)(=O)c2ccc(OCCCc3cccc(Br)c3)cc2)CCOCC1 [Example 154]	–	–	–	10.9	111	33.9	–
COCCN1CCC(C(=O)NO)(S(=O)(=O)c2ccc(OCCCn3nnc(-c4ccc(OC(F)(F)F)cc4)n3)cc2)CC1 [Example 48]	–	–	–	–	–	–	IC50 [1, 4]: 105 nM; IC50 [2, 4]: 4450 nM; Ki [3, 5]: 228 nM
O=C(NO)C1(S(=O)(=O)c2ccc(OCCCc3nc(-c4ccc(OC(F)(F)F)cc4)no3)cc2)CCOCC1 [Example 31, tetrahydro-N-hydroxy-4-[[4-[3-[3[4-(trifluoromethoxy)phenyl]-1,2,4-oxadiazol-5-yl]propoxy]phenyl]sulfonyl]-2H-pyran-4-carboxamide]	–	–	–	–	–	–	IC50 [1, 4]: 346 nM; IC50 [2, 4]: 5650 nM; Ki [3, 5]: 413 nM
COCCN1CCC(C(=O)NO)(S(=O)(=O)c2ccc(OCCCc3nc(-c4ccc(OC(F)(F)F)cc4)no3)cc2)CC1 [Example 190]	–	–	–	166	1740	283	–
O=C(NO)C1(S(=O)(=O)c2ccc(OCCCc3cccc(-c4ccsc4)c3)cc2)CCOCC1 [Example 632]	91	411	279	–	–	–	–
COCCN1CCC(C(=O)NO)(S(=O)(=O)c2ccc(OCCCc3nc(-c4ccccc4OC(F)(F)F)no3)cc2)CC1 [Example 152]	–	–	–	58.8	72.3	149	–
O=C(NO)C1(S(=O)(=O)c2ccc(OCCCc3cccc(-c4cccs4)c3)cc2)CCOCC1 [Example 595]	482	1730	586	–	–	–	–
O=C(NO)C1(S(=O)(=O)c2ccc(OCCCc3cccc(-c4ccc([N+](=O)[O-])cc4)c3)cc2)CCOCC1 [Example 626]	143	885	645	–	–	–	–
CCN1CCC(C(=O)NO)(S(=O)(=O)c2ccc(OCCCc3cccc(-c4ccccc4)c3)cc2)CC1 [Example 46]	–	–	–	–	–	–	IC50 [1, 4]: 321 nM; IC50 [2, 4]: 1970 nM; Ki [3, 5]: 786 nM
O=C(NO)C1(S(=O)(=O)c2ccc(OCCc3cccc(-c4ccc(F)cc4)c3)cc2)CCOCC1 [Example 123]	–	–	–	383	> 10000	793	–
O=C(NO)C1(S(=O)(=O)c2ccc(OCCCc3cncc(-c4ccc(F)cc4)c3)cc2)CCOCC1 [Example 523]	162	1650	197	–	–	–	–
O=C(NO)C1(S(=O)(=O)c2ccc(OCCCc3cccc(-c4ccc(F)cc4F)c3)cc2)CCOCC1 [Example 630]	1170	5990	2070	–	–	–	–
O=C(NO)C1(S(=O)(=O)c2ccc(OCCc3cccc(-c4ccccc4F)c3)cc2)CCOCC1 [Example 115]	–	–	–	312	> 10000	807	–
O=C(NO)C1(S(=O)(=O)c2ccc(OCCOc3cccc(-c4ccccc4)c3)cc2)CCOCC1 [Example 157]	–	–	–	182	2470	419	–
O=C(NO)C1(S(=O)(=O)c2ccc(OCCCc3cccc(-c4ccoc4)c3)cc2)CCOCC1 [Example 637]	138	830	498	–	–	–	–
COCCN1CCC(C(=O)NO)(S(=O)(=O)c2ccc(OCCCc3nnc(-c4ccccc4C(F)(F)F)o3)cc2)CC1 [Example 178]	–	–	–	28.4	1170	39.3	–
COCCN1CCC(C(=O)NO)(S(=O)(=O)c2ccc(OCCCc3nc(-c4ccc(OC(F)(F)F)cc4)no3)cc2)CC1 [Example 42]	–	–	–	–	–	–	IC50 [1, 4]: 100 nM; IC50 [2, 4]: 382 nM; Ki [3, 5]: 186 nM
O=C(NO)C1(S(=O)(=O)c2ccc(OCCCc3cc(-c4ccc(OC(F)(F)F)cc4)cs3)cc2)CCOCC1 [Example 608]	342	1790	724	–	–	–	–
